Laboratory results reported in patent US5534260A, “Percutaneous drug delivery system” (priority 1994, dated 1996).
Several values for one entry are separate records, joined by “and”; a condition that tells them apart may be missing. Equal values may be shown once. Entries after “also recorded” stand apart in the source; their conditions may differ. Read-outs that look alike come from different tables or passages of the source.

Legend:
[1] = Effect of pH on drug penetration through normal untreated hairless mouse skin (Example V A); type: in vitro ADME; conditions: for P (permeability): mouse
[2] = Effect of pH on drug penetration through hairless mouse skin pretreated with papain (Example V B); type: in vitro ADME
Text: B. Effect of pH on drug penetration through hairless mouse
skin Pretreated with sigma papain of concentration 0.093

[3] = Fourier Transform Infrared spectroscopy of stratum corneum; design: species or system mouse; conditions: for Absorbance in protein areas, peak position: Table I
Method: A. Comparisons of normal stratum corneum (from mouse skin) to stratum corneum treated with a 0.09% concentration of papain for 24 hours was performed using Fourier Transform Infrared spectroscopy (FTIR). […] It is postulated that a shift from a random form of protein to the more organized beta sheet structure occurs. The alpha-helix structures of skin protein could be fractionated, uncoiled, or both.
A comparison of symmetric and asymmetric CH stretch bands was then made. These two bands represent lipid structure and would show any changes in the stratum corneum lipids caused by the papain.
B. Azone™ was tested as a permeation enhancer with and without the presence of papain.

[4] = TEAB
[5] = pH 5.9, sigma papain 0.093 mg/ml for 24 hours
[6] = pH 6.6, sigma papain 0.093 mg/ml for 24 hours
[7] = pH 7.4, sigma papain 0.093 mg/ml for 24 hours
[8] = pH 8.0, sigma papain 0.093 mg/ml for 24 hours
[9] = pretreated with papain 0.010 mg/0.108 ml (0.093 mg/ml)
[10] = pretreated with papain 0.170 mg/0.602 ml (0.278 mg/ml)

With CC(=O)OCC[N+](C)(C)C.[Cl-] [Acetylcholine Chloride, acetylcholine chloride] the “J (flux)” value ([1]; pH 5.9) was 5.83 × 10^-6 mg/cm^2 /sec, the “J (flux)” value ([1]; pH 6.6) was 5.21 × 10^-6 mg/cm^2 /sec and the “J (flux)” value ([1]; pH 7.4) was 6.41 × 10^-6 mg/cm^2 /sec. For the same molecule, the “J (flux)” value ([1]; pH 8.0) was 9.32 × 10^-6 mg/cm^2 /sec, the “E (enhancement)” value [2, 5] was 103.09 and the “J (flux)” value [2, 5] was 6.00 × 10^-4 mg/cm^2 /sec. The “P (permeability)” value [2, 5] was 3 ×10⁻⁶ cm/s, the “E (enhancement)” value [2, 6] was 149.23 and the “J (flux)” value [2, 6] was 7.77 × 10^-4 mg/cm^2 /sec. For the same molecule, the “P (permeability)” value [2, 6] was 3.88 ×10⁻⁶ cm/s, the “E (enhancement)” value [2, 7] was 100.94 and the “J (flux)” value [2, 7] was 6.46 × 10^-4 mg/cm^2 /sec. For the same molecule, the “P (permeability)” value [2, 7] was 3.23 ×10⁻⁶ cm/s, the “E (enhancement)” value [2, 8] was 67.38 and the “J (flux)” value [2, 8] was 6.28 × 10^-4 mg/cm^2 /sec. The “P (permeability)” value [2, 8] was 3.14 ×10⁻⁶ cm/s.

With C=CCc1ccccc1OCC(O)CNC(C)C (stereo not drawn) [Alprenolol] the “P (permeability)” value ([1]; pH 5.9) was 0.0536 ×10⁻⁶ cm/s, the “P (permeability)” value ([1]; pH 7.4) was 0.184 ×10⁻⁶ cm/s and the “P (permeability)” value ([1]; pH 8) was 0.21 ×10⁻⁶ cm/s. For the same molecule, the “J (flux)” value ([1]; pH 5.9) was 5.36 × 10^-7 mg/cm^2 /sec, the “J (flux)” value ([1]; pH 6.6) was 7.74 × 10^-7 mg/cm^2 /sec and the “J (flux)” value ([1]; pH 7.4) was 1.84 × 10^-6 mg/cm^2 /sec. The “J (flux)” value ([1]; pH 8) was 2.10 × 10^-6 mg/cm^2 /sec, the “P (permeability)” value ([2]; mouse, pH 5.9) was 1.2 ×10⁻⁶ cm/s and the “P (permeability)” value ([2]; mouse, pH 6.6) was 1.33 ×10⁻⁶ cm/s. For the same molecule, the “P (permeability)” value ([2]; mouse, pH 7.4) was 1.32 ×10⁻⁶ cm/s, the “P (permeability)” value ([2]; mouse, pH 8) was 1.65 ×10⁻⁶ cm/s and the “E (enhancement)” value [2, 5] was 22.39. For the same molecule, the “E (enhancement)” value [2, 6] was 17.18, the “E (enhancement)” value [2, 7] was 7.17 and the “E (enhancement)” value [2, 8] was 7.86.

In the case of CCCCCCCCCCCCN1CCCCCC1=O [Azone, 1-n-dodecylazacycloheptan-2-one], the “Absorbance in protein areas, peak position” value (from here on “Absorbance in protein areas”) ([3]; untreated SC 1244) is reported as 1244.5 cm⁻¹, the “Absorbance in protein areas” value ([3]; untreated SC 1267) is reported as 1267.4 cm⁻¹ and the “Absorbance in protein areas” value ([3]; untreated SC 1295) is reported as 1296.6 cm⁻¹. The “Absorbance in protein areas” value ([3]; untreated SC 1400.5) was 1402 cm⁻¹, the “Absorbance in protein areas” value ([3]; untreated SC 1456) was 1461.8 cm⁻¹ and the Absorbance in lipid areas, symmetric CH peak position ([3]; Table II, untreated 2848.3) was 2850 cm⁻¹. The Absorbance in lipid areas, asymmetric CH peak position ([3]; Table II, untreated 2916.5) was 2920 cm⁻¹, the “Length of the 70% line, symmetric CH” value ([3]; Table III, untreated 8.6) was 11.4 cm⁻¹ and the “Length of the 70% line, asymmetric CH” value ([3]; Table III, untreated 17.5) was 27.2 cm⁻¹. For the same molecule, the “Asymm CH” value ([3]; Table VII, exposed SC) was 2916.5 cm⁻¹, the “Symm CH” value ([3]; Table VII, exposed SC) was 2848.3 cm⁻¹ and the “Symm 70% line” value ([3]; Table VII, normal SC 8.6) was 11.4 cm⁻¹. The “Asymm 70% line” value ([3]; Table VII, normal SC 17.5) was 27.2 cm⁻¹, the “change in lipid structure / CH stretch bands of stratum corneum” value ([3]; in words, listed as Azone™) was “lengthening of both symmetric and asymmetric CH stretch lines but did not change their peak positions and 70% line lengthened” and the “change in protein FTIR areas of stratum corneum” value ([3]; in words, listed as Azone™) was “did not change protein FTIR areas; also recorded: did not significantly effect the protein”. The “change in protein FTIR areas of stratum corneum” value ([3]; in words, listed as azone) was “No significant changes occurred in the protein areas”.

In the case of CC(=O)[C@H]1CC[C@H]2[C@@H]3CCC4=CC(=O)CC[C@]4(C)[C@H]3CC[C@]12C [Progesterone], the “J (flux)” value ([1]; pH 5.9) is reported as 2.30 × 10^-7 mg/cm^2 /sec, the “J (flux)” value ([1]; pH 6.6) is reported as 2.34 × 10^-7 mg/cm^2 /sec and the “J (flux)” value ([1]; pH 7.4) is reported as 2.34 × 10^-7 mg/cm^2 /sec and 2.92 × 10^-6 mg/cm^2 /sec. For the same molecule, the “J (flux)” value ([1]; pH 8.0) was 3.09 × 10^-6 mg/cm^2 /sec, the “E (enhancement)” value [2, 5] was 1.25 and the “J (flux)” value [2, 5] was 2.88 × 10^-7 mg/cm^2 /sec. For the same molecule, the “E (enhancement)” value [2, 6] was 1.50, the “J (flux)” value [2, 6] was 3.51 × 10^-7 mg/cm^2 /sec and the “E (enhancement)” value [2, 7] was 1.17. For the same molecule, the “J (flux)” value [2, 7] was 2.73 × 10^-7 mg/cm^2 /sec, the “E (enhancement)” value [2, 8] was 1.17 and the “P (permeability)” value [2, 8] was 0.289 ×10⁻⁶ cm/s and 3.61 ×10⁻⁶ cm/s.

B1: Sigma papain: papain from Sigma Chemical (protein, UniProt P00784 134-345, looked up)
Papain: IPEYVDWRQKGAVTPVKNQGSCGSCWAFSAVVTIEGIIKIRTGNLNEYSEQELLDCDRRSYGCNGGYPWSALQLVAQYGIHYRNTYPYEGVQRYCRSREKGPYAAKTDGVRQVQPYNEGALLYSIANQPVSVVLEAAGKDFQLYRGGIFVGPCGNKVDHAVAAVGYGPNYILIKNSWGTGWGENGYIRIKRGTGNSYGVCGLYTSSFYPVKN
For B1, the “J (flux)” value [4, 9] was 6.87 × 10^-4 mg/cm^2 /sec, the “P (permeability)” value [4, 9] was 0.85 ×10⁻⁶ cm/s and the “J (flux)” value [4, 10] was 1.46 × 10^-3 mg/cm^2 /sec. The “P (permeability)” value [4, 10] was 1.81 ×10⁻⁶ cm/s.
